Reference: PMC12300041, “Tricyclic Isatin Derivatives as Anti-Inflammatory Compounds with High Kinase Binding Affinity” (Molecules, 2025)

Tests used:
Assay in all cases: KINOMEscan
Type in all cases: binding
PIK3CA (C420R) = target: T1, PIK3CA (C420R) (Homo sapiens, UniProt P42336, C420R)
T1 construct: purchased Eurofins DiscoverX KINOMEscan
Outline: (§1)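 Read-out is qPCR of kinase not bound to the test compound, recovered by capture on an immobilized affinity ligand after a 1 h room-temperature binding step. Dissociation constants came from 12 half-log dilutions starting at 33 μM.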

VPS34 = target: T2, VPS34 (Homo sapiens, UniProt Q8NEB9)
T2 construct: purchased Eurofins DiscoverX KINOMEscan
Outline: as §1

JAK1 (JH1domain-cat.) = target: T3, JAK1 (JH1domain-cat.) (Homo sapiens, UniProt P23458)
T3 construct: JAK1 (JH1domain-cat.); purchased Eurofins DiscoverX KINOMEscan
Outline: as §1

[1] = target: T4, RSK1 (Kin. Dom.1-N-term.) (Homo sapiens, UniProt Q15418)
T4 construct: RSK1 (Kin. Dom.1-N-term.); purchased Eurofins DiscoverX KINOMEscan
Outline: as §1

[2] = target: T5, RPS6KA5 (Kin. Dom.2-C-term.) (Homo sapiens, UniProt O75582)
T5 construct: RPS6KA5 (Kin. Dom.2-C-term.); purchased Eurofins DiscoverX KINOMEscan
Outline: as §1

AURKC = target: T6, AURKC (Homo sapiens, UniProt Q9UQB9)
T6 construct: purchased Eurofins DiscoverX KINOMEscan
Outline: as §1

TLK1 = target: T7, TLK1 (Homo sapiens, UniProt Q9UKI8)
T7 construct: purchased Eurofins DiscoverX KINOMEscan
Outline: as §1

BTK = target: T8, BTK (Homo sapiens, UniProt Q06187)
T8 construct: purchased Eurofins DiscoverX KINOMEscan
Outline: as §1

YSK1 = target: T9, YSK1 (Homo sapiens, UniProt O00506)
T9 construct: purchased Eurofins DiscoverX KINOMEscan
Outline: as §1

BMPR1A = target: T10, BMPR1A (Homo sapiens, UniProt P36894)
T10 construct: purchased Eurofins DiscoverX KINOMEscan
Outline: as §1

LOK = target: T11, LOK (Homo sapiens, UniProt O94804)
T11 construct: purchased Eurofins DiscoverX KINOMEscan
Outline: as §1

CSNK1A1 = target: T12, CSNK1A1 (Homo sapiens, UniProt P48729)
T12 construct: purchased Eurofins DiscoverX KINOMEscan
T12 sequence (P48729 whole entry): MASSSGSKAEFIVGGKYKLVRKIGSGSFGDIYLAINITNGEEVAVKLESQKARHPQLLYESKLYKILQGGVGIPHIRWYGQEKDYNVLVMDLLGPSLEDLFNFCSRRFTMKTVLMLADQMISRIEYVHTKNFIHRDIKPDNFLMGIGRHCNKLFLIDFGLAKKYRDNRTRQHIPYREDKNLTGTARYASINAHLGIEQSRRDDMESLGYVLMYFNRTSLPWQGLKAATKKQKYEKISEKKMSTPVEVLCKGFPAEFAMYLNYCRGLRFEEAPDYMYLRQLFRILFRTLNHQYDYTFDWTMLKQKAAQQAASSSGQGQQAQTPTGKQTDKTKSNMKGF
Outline: as §1

MAP3K4 = target: T13, MAP3K4 (Homo sapiens, UniProt Q9Y6R4)
T13 construct: purchased Eurofins DiscoverX KINOMEscan
Outline: as §1

TSSK3 = target: T14, TSSK3 (Homo sapiens, UniProt Q96PN8)
T14 construct: purchased Eurofins DiscoverX KINOMEscan
Outline: as §1

LATS2 = target: T15, LATS2 (Homo sapiens, UniProt Q9NRM7)
T15 construct: purchased Eurofins DiscoverX KINOMEscan
Outline: as §1

[3] = target: T16, RSK2 (Kin. Dom.1-N-term.) (Homo sapiens, UniProt P51812)
T16 construct: RSK2 (Kin. Dom.1-N-term.); purchased Eurofins DiscoverX KINOMEscan
Outline: as §1

INSRR = target: T17, INSRR (Homo sapiens, UniProt P14616)
T17 construct: purchased Eurofins DiscoverX KINOMEscan
T17 sequence (P14616 27-1297): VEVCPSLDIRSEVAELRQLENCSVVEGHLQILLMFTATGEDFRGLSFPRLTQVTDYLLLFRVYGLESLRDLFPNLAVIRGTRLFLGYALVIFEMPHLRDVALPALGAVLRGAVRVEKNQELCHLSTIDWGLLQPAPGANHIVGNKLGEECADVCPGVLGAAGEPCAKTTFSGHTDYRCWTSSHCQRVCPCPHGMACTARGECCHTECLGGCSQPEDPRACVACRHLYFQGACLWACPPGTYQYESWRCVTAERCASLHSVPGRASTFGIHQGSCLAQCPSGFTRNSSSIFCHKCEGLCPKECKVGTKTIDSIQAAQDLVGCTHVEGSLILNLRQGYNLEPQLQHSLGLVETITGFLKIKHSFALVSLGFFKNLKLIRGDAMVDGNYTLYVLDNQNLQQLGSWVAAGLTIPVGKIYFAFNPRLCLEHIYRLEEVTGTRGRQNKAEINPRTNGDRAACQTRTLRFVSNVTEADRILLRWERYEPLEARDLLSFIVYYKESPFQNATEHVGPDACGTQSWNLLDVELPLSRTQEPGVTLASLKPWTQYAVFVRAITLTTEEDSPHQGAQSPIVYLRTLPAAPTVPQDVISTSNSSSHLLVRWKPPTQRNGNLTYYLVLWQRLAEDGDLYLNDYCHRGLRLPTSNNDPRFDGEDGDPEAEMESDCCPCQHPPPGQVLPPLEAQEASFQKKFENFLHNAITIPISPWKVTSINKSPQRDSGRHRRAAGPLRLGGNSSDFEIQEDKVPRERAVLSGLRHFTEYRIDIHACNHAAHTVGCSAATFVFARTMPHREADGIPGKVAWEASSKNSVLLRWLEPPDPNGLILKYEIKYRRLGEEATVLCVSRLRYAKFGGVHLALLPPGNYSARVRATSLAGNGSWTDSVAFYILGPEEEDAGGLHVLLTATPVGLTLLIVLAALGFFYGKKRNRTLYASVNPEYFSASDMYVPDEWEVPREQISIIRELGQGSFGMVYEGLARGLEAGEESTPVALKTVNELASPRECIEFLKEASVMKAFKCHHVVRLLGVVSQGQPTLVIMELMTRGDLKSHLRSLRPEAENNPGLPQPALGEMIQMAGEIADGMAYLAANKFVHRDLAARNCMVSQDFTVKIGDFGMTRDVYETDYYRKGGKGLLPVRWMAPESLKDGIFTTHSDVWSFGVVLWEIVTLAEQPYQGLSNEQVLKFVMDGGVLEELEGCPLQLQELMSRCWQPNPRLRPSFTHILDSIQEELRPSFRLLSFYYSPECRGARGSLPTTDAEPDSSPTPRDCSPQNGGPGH
Outline: as §1

PLK2 = target: T18, PLK2 (Homo sapiens, UniProt Q9NYY3)
T18 construct: purchased Eurofins DiscoverX KINOMEscan
T18 sequence (Q9NYY3 whole entry): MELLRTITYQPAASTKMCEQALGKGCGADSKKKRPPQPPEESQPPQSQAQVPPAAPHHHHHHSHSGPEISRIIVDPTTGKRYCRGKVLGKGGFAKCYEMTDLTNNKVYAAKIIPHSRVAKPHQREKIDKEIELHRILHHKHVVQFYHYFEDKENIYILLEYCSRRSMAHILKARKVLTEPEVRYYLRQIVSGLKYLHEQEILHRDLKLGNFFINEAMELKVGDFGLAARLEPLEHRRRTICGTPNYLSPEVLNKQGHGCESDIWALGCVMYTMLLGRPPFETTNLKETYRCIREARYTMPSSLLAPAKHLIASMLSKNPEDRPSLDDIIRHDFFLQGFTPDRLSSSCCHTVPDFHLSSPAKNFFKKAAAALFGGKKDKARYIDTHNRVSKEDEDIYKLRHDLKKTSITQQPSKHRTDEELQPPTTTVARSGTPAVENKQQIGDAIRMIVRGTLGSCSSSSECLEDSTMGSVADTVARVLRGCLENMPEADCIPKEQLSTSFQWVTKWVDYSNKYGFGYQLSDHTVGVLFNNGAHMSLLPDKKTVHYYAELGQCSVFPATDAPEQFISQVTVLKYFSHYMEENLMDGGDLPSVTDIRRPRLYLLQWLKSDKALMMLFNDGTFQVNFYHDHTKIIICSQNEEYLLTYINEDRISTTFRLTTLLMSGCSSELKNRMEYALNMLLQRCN
Outline: as §1

BRAF (V600E) = target: T19, BRAF (V600E) (Homo sapiens, UniProt P15056, V600E)
T19 construct: purchased Eurofins DiscoverX KINOMEscan
Outline: as §1

TNIK = target: T20, TNIK (Homo sapiens, UniProt Q9UKE5)
T20 construct: purchased Eurofins DiscoverX KINOMEscan
Outline: as §1

BRAF = target: T21, BRAF (Homo sapiens, UniProt P15056)
T21 construct: purchased Eurofins DiscoverX KINOMEscan
Outline: as §1

CHEK1 = target: T22, CHEK1 (Homo sapiens, UniProt O14757)
T22 construct: purchased Eurofins DiscoverX KINOMEscan
Outline: as §1

CLK3 = target: T23, CLK3 (Homo sapiens, UniProt P49761)
T23 construct: purchased Eurofins DiscoverX KINOMEscan
Outline: as §1

PIK3CD = target: T24, PIK3CD (Homo sapiens, UniProt O00329)
T24 construct: purchased Eurofins DiscoverX KINOMEscan
Outline: as §1

ROCK1 = target: T25, ROCK1 (Homo sapiens, UniProt Q13464)
T25 construct: purchased Eurofins DiscoverX KINOMEscan
T25 sequence (Q13464 whole entry): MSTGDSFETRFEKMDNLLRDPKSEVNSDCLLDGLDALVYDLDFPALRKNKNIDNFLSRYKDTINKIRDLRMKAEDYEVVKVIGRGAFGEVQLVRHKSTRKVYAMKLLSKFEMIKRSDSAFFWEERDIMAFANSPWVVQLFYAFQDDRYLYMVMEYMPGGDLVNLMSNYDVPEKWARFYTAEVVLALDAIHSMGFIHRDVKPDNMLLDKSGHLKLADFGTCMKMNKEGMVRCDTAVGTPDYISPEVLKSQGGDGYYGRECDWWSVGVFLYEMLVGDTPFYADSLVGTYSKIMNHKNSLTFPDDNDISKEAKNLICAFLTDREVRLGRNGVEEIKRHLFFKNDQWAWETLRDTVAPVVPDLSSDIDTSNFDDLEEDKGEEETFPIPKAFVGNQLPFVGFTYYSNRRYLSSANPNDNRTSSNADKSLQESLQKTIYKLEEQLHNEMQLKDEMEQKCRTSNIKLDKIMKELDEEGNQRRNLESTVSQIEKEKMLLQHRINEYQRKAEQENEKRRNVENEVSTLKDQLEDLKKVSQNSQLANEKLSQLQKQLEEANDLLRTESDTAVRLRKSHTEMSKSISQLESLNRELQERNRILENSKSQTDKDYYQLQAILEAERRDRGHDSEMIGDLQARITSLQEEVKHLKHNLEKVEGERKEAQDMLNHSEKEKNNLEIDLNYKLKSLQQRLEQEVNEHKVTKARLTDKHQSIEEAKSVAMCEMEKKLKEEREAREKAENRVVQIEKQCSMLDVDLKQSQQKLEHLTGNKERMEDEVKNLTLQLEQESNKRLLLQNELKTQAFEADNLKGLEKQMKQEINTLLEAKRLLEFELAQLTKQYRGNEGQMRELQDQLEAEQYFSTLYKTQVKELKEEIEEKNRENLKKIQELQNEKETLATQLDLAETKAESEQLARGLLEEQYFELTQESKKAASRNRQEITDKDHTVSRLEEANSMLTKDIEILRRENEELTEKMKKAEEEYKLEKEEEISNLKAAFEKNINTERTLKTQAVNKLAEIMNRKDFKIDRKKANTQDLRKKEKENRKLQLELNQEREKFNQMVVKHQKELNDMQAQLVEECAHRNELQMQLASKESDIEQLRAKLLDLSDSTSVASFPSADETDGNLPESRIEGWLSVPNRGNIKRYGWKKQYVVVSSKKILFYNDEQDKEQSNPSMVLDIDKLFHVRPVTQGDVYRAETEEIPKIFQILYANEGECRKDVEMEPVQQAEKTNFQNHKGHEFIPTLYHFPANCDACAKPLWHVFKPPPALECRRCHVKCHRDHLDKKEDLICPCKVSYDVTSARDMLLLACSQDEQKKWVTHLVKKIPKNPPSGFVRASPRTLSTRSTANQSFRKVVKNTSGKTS
Outline: as §1

CDK2 = target: T26, CDK2 (Homo sapiens, UniProt P24941)
T26 construct: purchased Eurofins DiscoverX KINOMEscan
Outline: as §1

MST2 = target: T27, MST2 (Homo sapiens, UniProt Q13188)
T27 construct: purchased Eurofins DiscoverX KINOMEscan
Outline: as §1

AMPK-α1 = target: T28, AMPK-α1 (Homo sapiens, UniProt Q13131)
T28 construct: purchased Eurofins DiscoverX KINOMEscan
Outline: as §1

ACVR1B = target: T29, ACVR1B (Homo sapiens, UniProt P36896)
T29 construct: purchased Eurofins DiscoverX KINOMEscan
Outline: as §1

PRKX = target: T30, PRKX (Homo sapiens, UniProt P51817)
T30 construct: purchased Eurofins DiscoverX KINOMEscan
T30 sequence (P51817 whole entry): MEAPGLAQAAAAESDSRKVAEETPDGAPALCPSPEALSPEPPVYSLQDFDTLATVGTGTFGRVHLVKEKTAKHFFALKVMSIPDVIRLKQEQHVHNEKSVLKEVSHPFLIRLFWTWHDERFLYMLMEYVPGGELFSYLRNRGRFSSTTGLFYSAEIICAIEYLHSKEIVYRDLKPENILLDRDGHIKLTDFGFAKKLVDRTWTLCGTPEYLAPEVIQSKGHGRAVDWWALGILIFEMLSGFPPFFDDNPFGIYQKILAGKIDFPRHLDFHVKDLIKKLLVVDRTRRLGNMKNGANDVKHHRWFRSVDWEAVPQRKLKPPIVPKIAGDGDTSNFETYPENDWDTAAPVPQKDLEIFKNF
Outline: as §1

PDGFRB = target: T31, PDGFRB (Homo sapiens, UniProt P09619)
T31 construct: purchased Eurofins DiscoverX KINOMEscan
T31 sequence (P09619 33-1106): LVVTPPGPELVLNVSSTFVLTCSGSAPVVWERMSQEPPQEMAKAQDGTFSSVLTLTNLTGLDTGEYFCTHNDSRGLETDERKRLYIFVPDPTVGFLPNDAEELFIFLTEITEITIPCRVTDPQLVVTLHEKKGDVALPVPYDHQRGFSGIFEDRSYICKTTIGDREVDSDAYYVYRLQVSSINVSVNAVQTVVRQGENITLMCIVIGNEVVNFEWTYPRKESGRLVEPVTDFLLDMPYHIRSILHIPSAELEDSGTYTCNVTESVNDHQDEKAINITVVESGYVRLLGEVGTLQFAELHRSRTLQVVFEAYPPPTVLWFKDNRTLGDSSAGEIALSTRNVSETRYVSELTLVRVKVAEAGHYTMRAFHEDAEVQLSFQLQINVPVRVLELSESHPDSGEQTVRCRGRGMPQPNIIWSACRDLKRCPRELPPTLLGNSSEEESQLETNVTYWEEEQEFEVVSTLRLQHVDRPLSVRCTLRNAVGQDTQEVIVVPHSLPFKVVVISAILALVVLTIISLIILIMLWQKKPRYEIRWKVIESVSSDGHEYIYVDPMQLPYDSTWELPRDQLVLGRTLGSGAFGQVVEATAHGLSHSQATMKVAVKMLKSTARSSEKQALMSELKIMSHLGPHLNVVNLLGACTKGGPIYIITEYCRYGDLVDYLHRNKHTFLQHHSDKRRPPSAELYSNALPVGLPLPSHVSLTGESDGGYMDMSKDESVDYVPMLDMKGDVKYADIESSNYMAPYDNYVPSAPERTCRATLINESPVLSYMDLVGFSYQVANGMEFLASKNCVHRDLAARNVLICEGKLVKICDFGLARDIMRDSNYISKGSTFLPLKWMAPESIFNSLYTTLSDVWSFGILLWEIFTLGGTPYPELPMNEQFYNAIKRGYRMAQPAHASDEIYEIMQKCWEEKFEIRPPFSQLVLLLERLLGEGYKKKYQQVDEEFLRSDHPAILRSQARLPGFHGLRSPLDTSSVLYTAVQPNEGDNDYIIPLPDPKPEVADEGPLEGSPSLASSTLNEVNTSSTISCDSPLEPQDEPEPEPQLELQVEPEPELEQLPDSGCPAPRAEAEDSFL
Outline: as §1

PKN2 = target: T32, PKN2 (Homo sapiens, UniProt Q16513)
T32 construct: purchased Eurofins DiscoverX KINOMEscan
Outline: as §1

SgK110 = target: T33, SgK110 (Homo sapiens, UniProt P0C264)
T33 construct: purchased Eurofins DiscoverX KINOMEscan
Outline: as §1

LTK = target: T34, LTK (Homo sapiens, UniProt P29376)
T34 construct: purchased Eurofins DiscoverX KINOMEscan
Outline: as §1

MAPKAPK5 = target: T35, MAPKAPK5 (Homo sapiens, UniProt Q8IW41)
T35 construct: purchased Eurofins DiscoverX KINOMEscan
Outline: as §1

BMX = target: T36, BMX (Homo sapiens, UniProt P51813)
T36 construct: purchased Eurofins DiscoverX KINOMEscan
Outline: as §1

NEK5 = target: T37, NEK5 (Homo sapiens, UniProt Q6P3R8)
T37 construct: purchased Eurofins DiscoverX KINOMEscan
Outline: as §1

PDGFRA = target: T38, PDGFRA (Homo sapiens, UniProt P16234)
T38 construct: purchased Eurofins DiscoverX KINOMEscan
Outline: as §1

O=C1Nc2c(cc([N+](=O)[O-])c3c2CCCC3)C1=NO [Compound 5d, 3-(Hydroxyimino)-5-nitro-1,3,6,7,8,9-hexahydro-2H-benzo[g]indol-2-one]
inhibition at 10 µM (PIK3CA (C420R)): 0% | inhibition at 10 µM (VPS34): 27% | inhibition at 10 µM (JAK1 (JH1domain-cat.)): 0% | inhibition at 10 µM [1]: 0% | inhibition at 10 µM [2]: 89.4% | inhibition at 10 µM (AURKC): 39% | inhibition at 10 µM (TLK1): 19% | inhibition at 10 µM (BTK): 39% | inhibition at 10 µM (YSK1): 10% | inhibition at 10 µM (BMPR1A): 18% | inhibition at 10 µM (LOK): 73% | inhibition at 10 µM (CSNK1A1): 93.5% | inhibition at 10 µM (MAP3K4): 15% | inhibition at 10 µM (TSSK3): 61% | inhibition at 10 µM (LATS2): 28% | inhibition at 10 µM [3]: 81% | inhibition at 10 µM (INSRR): 4% | inhibition at 10 µM (PLK2): 67% | inhibition at 10 µM (BRAF (V600E)): 23% | inhibition at 10 µM (TNIK): 65% | inhibition at 10 µM (BRAF): 28% | inhibition at 10 µM (CHEK1): 2% | inhibition at 10 µM (CLK3): 19% | inhibition at 10 µM (PIK3CD): 42% | inhibition at 10 µM (ROCK1): 61% | inhibition at 10 µM (CDK2): 9% | inhibition at 10 µM (MST2): 39% | inhibition at 10 µM (AMPK-α1): 28% | inhibition at 10 µM (ACVR1B): 10% | inhibition at 10 µM (PRKX): 0% | inhibition at 10 µM (PDGFRB): 0% | inhibition at 10 µM (PKN2): 84% | inhibition at 10 µM (SgK110): 0% | inhibition at 10 µM (LTK): 64% | inhibition at 10 µM (MAPKAPK5): 2% | inhibition at 10 µM (BMX): 13% | inhibition at 10 µM (NEK5): 7% | inhibition at 10 µM (PDGFRA): 0%
